Source: ChEMBL document CHEMBL5365529, “Construction and Evaluation of Novel Dual-function Antifungal Inhibitors and Covalent Organic Framework Carriers Based on the Infection Microenvironment” (J Med Chem, 2023)
≈ marks a conversion by molar mass, not a printed value. Calls of active or inactive are those of the source. No cut-off for these calls is given here.

Tests used:
[1] = molecular target: T1, Lanosterol 14-alpha demethylase (Candida albicans (strain SC5314 / ATCC MYA-2876) (Yeast), UniProt P10613); assay: Inhibition of CYP51 in Candida albicans SC5314 assessed as lanosterol level at 4 ug/ml incubated for 16 hrs by GC-MS analysis relative to control; design: scale not given: the % may be the effect or the level left; settings: at 4 µg/mL
[2] = molecular target: T1, Lanosterol 14-alpha demethylase; assay: Inhibition of CYP51 in Candida albicans SC5314 assessed as ergosterol level at 4 ug/ml incubated for 16 hrs by GC-MS analysis (reference value: 92.07 %); design: scale not given: the % may be the effect or the level left; settings: at 4 µg/mL
Candida albicans [3] = assay: Antifungal activity against Candida albicans SC5314 assessed as fungal growth inhibition incubated for 72 hrs by CLSI based susceptibility test; assay type: functional
Nakaseomyces glabratus = assay: Antifungal activity against Candida glabrata assessed as fungal growth inhibition incubated for 72 hrs by CLSI based susceptibility test; assay type: functional
Candida tropicalis = assay: Antifungal activity against Candida tropicalis ATCC 1369 assessed as fungal growth inhibition incubated for 72 hrs by CLSI based susceptibility test; assay type: functional
Cryptococcus neoformans = assay: Antifungal activity against Cryptococcus neoformans ZKCC 2209 assessed as fungal growth inhibition incubated for 72 hrs by CLSI based susceptibility test; assay type: functional
Aspergillus fumigatus = assay: Antifungal activity against Aspergillus fumigatus KM8001 assessed as fungal growth inhibition incubated for 72 hrs by CLSI based susceptibility test; assay type: functional
Candida albicans [4] = assay: Antifungal activity against FLC-resistant Candida albicans 632 assessed as fungal growth inhibition incubated for 72 hrs by CLSI based susceptibility test; assay type: functional
Candida albicans [5] = assay: Antifungal activity against FLC-resistant Candida albicans 17# assessed as fungal growth inhibition incubated for 72 hrs by CLSI based susceptibility test; assay type: functional
Candida albicans [6] = assay: Antifungal activity against FLC-resistant Candida albicans CaR assessed as fungal growth inhibition incubated for 72 hrs by CLSI based susceptibility test; assay type: functional
[7] = molecular target: T1, Lanosterol 14-alpha demethylase; assay: Inhibition of CYP51 in Candida albicans SC5314 using lanosterol as substrate incubated for 60 mins by HPLC analysis
Candida albicans [8] = assay: Induction of apoptosis in Candida albicans SC5314 assessed as apoptotic cells incubated for 48 hrs by annexin V-FITC/PI staining based flow cytometry (reference value: 2.12 %); assay type: functional
Candida albicans [9] = assay: Induction of apoptosis in Candida albicans SC5314 assessed as necrotic cells incubated for 48 hrs by annexin V-FITC/PI staining based flow cytometry (reference value: 2.12 %); assay type: functional
Candida albicans [10] = assay: Induction of morphological changes in Candida albicans SC5314 assessed as decrease in cell membrane thickness measured after 48 hrs by TEM analysis; assay type: functional, organism-based
Candida albicans [11] = assay: Induction of morphological changes in Candida albicans SC5314 assessed as change in cell structure measured after 48 hrs by TEM analysis; assay type: functional, organism-based
Candida albicans [12] = assay: Induction of morphological changes in Candida albicans SC5314 assessed as reduction in cytoplasmic density measured for 96 to 144 hrs by TEM analysis; assay type: functional, organism-based; settings: time 96-144 hrs
Candida albicans [13] = assay: Induction of morphological changes in Candida albicans SC5314 assessed as accumulation of low-density granules measured for 96 to 144 hrs by TEM analysis; assay type: functional, organism-based; settings: time 96-144 hrs
Candida albicans [14] = assay: Induction of morphological changes in Candida albicans SC5314 assessed as necrotic cellular debris measured for 96 to 144 hrs by TEM analysis; assay type: functional, organism-based; settings: time 96-144 hrs
[15] = Drug uptake in Candida albicans SC5314 assessed as increase in green fluorescence by imaging analysis; assay type: ADME
[16] = Drug uptake in Candida albicans SC5314 assessed as increase in blue fluorescence by hoechst 33256 staining based imaging analysis; assay type: ADME
[17] = Drug uptake in Candida albicans SC5314 assessed as increase in red fluorescence by PI staining based imaging analysis; assay type: ADME
[18] = Toxicity in BALB/c mouse infected with Candida albicans 901 assessed as toxic side effects at 0.5 ug/g administered 6 times measured after 4 days; settings: in vivo, 96 h, dose 0.5 µg/g, time 4 day
Candida albicans [19] = assay: Antifungal activity against Candida albicans 901 infected in BALB/c mouse assessed as disappearance of nuclear aggregation in lesion at 0.5 ug/g administered 6 times measured after 4 days by H and E staining based analysis; assay type: functional, organism-based; settings: dose 0.5 µg/g, time 4.0 day
Candida albicans [20] = assay: Antifungal activity against Candida albicans 901 infected in BALB/c mouse assessed as inhibition of fungal proliferation at 0.5 ug/g administered 6 times measured after 4 days by Masson staining based analysis; assay type: functional, organism-based; settings: dose 0.5 µg/g, time 4.0 day
Candida albicans [21] = assay: Antifungal activity against Candida albicans 901 infected in BALB/c mouse assessed as inhibition of fungal proliferation at 0.5 ug/g administered 6 times measured after 4 days by GMS staining based analysis; assay type: functional, organism-based; settings: dose 0.5 µg/g, time 4.0 day
Candida albicans [22] = assay: Antifungal activity against Candida albicans 901 infected in BALB/c mouse assessed as repair of tissue damage at 0.5 ug/g administered 6 times measured after 4 days by Masson staining based analysis; assay type: functional, organism-based; settings: dose 0.5 µg/g, time 4.0 day
[23] = Toxicity in BALB/c mouse infected with Candida albicans 901 assessed as pathological change in heart at 0.5 ug/g administered 6 times measured after 4 days by H and E staining based analysis; assay type: tissue-based; settings: in vivo, 96 h, dose 0.5 µg/g, time 4 day
[24] = Toxicity in BALB/c mouse infected with Candida albicans 901 assessed as pathological change in spleen at 0.5 ug/g administered 6 times measured after 4 days by H and E staining based analysis; assay type: tissue-based; settings: in vivo, 96 h, dose 0.5 µg/g, time 4 day
[25] = Toxicity in BALB/c mouse infected with Candida albicans 901 assessed as pathological change in liver at 0.5 ug/g administered 6 times measured after 4 days by H and E staining based analysis; assay type: tissue-based; settings: in vivo, 96 h, dose 0.5 µg/g, time 4 day
[26] = Toxicity in BALB/c mouse infected with Candida albicans 901 assessed as plasma CRE level at 0.5 ug/g administered 6 times measured after 4 days (reference value: 18.48 +/- 2.7 umol/L); settings: in vivo, 96 h, dose 0.5 µg/g, time 4 day
[27] = Toxicity in BALB/c mouse infected with Candida albicans 901 assessed as plasma BUN level at 0.5 ug/g administered 6 times measured after 4 days (reference value: 20.4 +/- 1.5 mmol/L); settings: in vivo, 96 h, dose 0.5 µg/g, time 4 day
Mus musculus [28] = assay: Antiinflammatory activity in BALB/c mouse infected with Candida albicans 901 assessed as decrease in COX-2 level at 0.5 ug/g administered 6 times measured after 4 days by IHC analysis; assay type: functional, organism-based; settings: dose 0.5 µg/g, time 4.0 day
Mus musculus [29] = assay: Antiinflammatory activity in BALB/c mouse infected with Candida albicans 901 assessed as decrease in IL-2 level at 0.5 ug/g administered 6 times measured after 4 days by IHC analysis; assay type: functional, organism-based; settings: dose 0.5 µg/g, time 4.0 day
Mus musculus [30] = assay: Antiinflammatory activity in BALB/c mouse infected with Candida albicans 901 assessed as decrease in INF-gamma level at 0.5 ug/g administered 6 times measured after 4 days by IHC analysis; assay type: functional, organism-based; settings: dose 0.5 µg/g, time 4.0 day
Candida albicans [31] = assay: Induction of immunity in BALB/c mouse infected with Candida albicans 901 assessed as decrease in PD-L1 level at 0.5 ug/g administered 6 times measured after 4 days by Western blot analysis; assay type: functional, organism-based; settings: dose 0.5 µg/g, time 4.0 day
Candida albicans [32] = assay: Induction of immunity in BALB/c mouse infected with Candida albicans 901 assessed as decrease in PD-L1 level at 0.5 ug/g administered 6 times measured after 4 days by IHC analysis; assay type: functional, organism-based; settings: dose 0.5 µg/g, time 4.0 day
Candida albicans [33] = assay: Induction of immunity in BALB/c mouse infected with Candida albicans 901 assessed as increase in CD3 positive level at 0.5 ug/g administered 6 times measured after 4 days by IHC analysis; assay type: functional, organism-based; settings: dose 0.5 µg/g, time 4.0 day

T1 sequence (P10613 whole entry): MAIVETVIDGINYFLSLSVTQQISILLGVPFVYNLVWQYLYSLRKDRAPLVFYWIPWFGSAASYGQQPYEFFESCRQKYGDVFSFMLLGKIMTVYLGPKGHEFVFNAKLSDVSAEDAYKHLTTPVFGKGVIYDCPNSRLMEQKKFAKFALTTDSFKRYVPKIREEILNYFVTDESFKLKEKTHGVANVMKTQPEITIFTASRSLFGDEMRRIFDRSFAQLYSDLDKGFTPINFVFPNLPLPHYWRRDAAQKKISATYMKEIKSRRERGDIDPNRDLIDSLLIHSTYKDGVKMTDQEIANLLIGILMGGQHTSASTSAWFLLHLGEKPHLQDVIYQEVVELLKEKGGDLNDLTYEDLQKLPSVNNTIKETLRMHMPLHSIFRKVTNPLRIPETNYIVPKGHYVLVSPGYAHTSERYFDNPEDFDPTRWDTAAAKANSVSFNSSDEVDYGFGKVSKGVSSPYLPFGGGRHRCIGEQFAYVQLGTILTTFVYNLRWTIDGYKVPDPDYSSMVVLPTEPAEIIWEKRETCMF

SMILES: COC(=O)[C@@H](Cn1cncn1)NCc1cccc(OCc2cccc(-c3ccccc3)c2C)c1
- Activity [1]: 10.47%
- Activity [2]: 9.72%
- MIC50 (Candida albicans [3]): 0.125 µg/mL (≈ 0.274 µM)
- MIC50 (Nakaseomyces glabratus): 0.125 µg/mL (≈ 0.274 µM)
- MIC50 (Candida tropicalis): 0.5 µg/mL (≈ 1.1 µM)
- MIC50 (Cryptococcus neoformans): 0.5 µg/mL (≈ 1.1 µM)
- MIC50 (Aspergillus fumigatus): 2 µg/mL (≈ 4.38 µM)
- MIC50 (Candida albicans [4]): 4 µg/mL (≈ 8.76 µM)
- MIC50 (Candida albicans [5]): 4 µg/mL (≈ 8.76 µM)
- MIC50 (Candida albicans [6]): 2 µg/mL (≈ 4.38 µM)
- IC50 [7]: 170 nM
- Activity (Candida albicans [8]): 25.91%
- Activity (Candida albicans [9]): 25.91%
- Activity (Candida albicans [10]): Active
- Activity (Candida albicans [11]): Active
- Activity (Candida albicans [12]): Active
- Activity (Candida albicans [13]): Active
- Activity (Candida albicans [14]): Active
- Drug uptake [15]: Active
- Drug uptake [16]: Active
- Drug uptake [17]: Active
- Activity [18]: Non-Toxic
- Activity (Candida albicans [19]): Active
- inhibition (Candida albicans [20]): Active
- inhibition (Candida albicans [21]): Active
- Activity (Candida albicans [22]): Active
- Activity [23]: Non-Toxic
- Activity [24]: Non-Toxic
- Activity [25]: Non-Toxic
- Activity [26]: 10.91 µmol/L
- Activity [27]: 24.7 mmol/L
- Activity (Mus musculus [28]): Active
- Activity (Mus musculus [29]): Active
- Activity (Mus musculus [30]): Active
- Activity (Candida albicans [31]): Active
- Activity (Candida albicans [32]): Active
- Activity (Candida albicans [33]): Active
